Experimental data taken from the NIST ThermoML archive (doi:10.1021/je200766t).
Numbers after ± are expanded uncertainties.

Conditions: Liquid, Closed cell (Static) method

OCC(O)CO [glycerol]
Conditions | vapor or sublimation pressure [kPa]
351.8 K | 0.00583 ± 0.00043
362.02 K | 0.0129 ± 0.0009
372.06 K | 0.0258 ± 0.0017
382.08 K | 0.0544 ± 0.0034
392.18 K | 0.102 ± 0.006
402.16 K | 0.18 ± 0.011
412.24 K | 0.315 ± 0.019
422.28 K | 0.534 ± 0.032
432.45 K | 0.981 ± 0.021
452.64 K | 2.747 ± 0.02
462.86 K | 4.099 ± 0.029

OCCCO [propan-1,3-diol]
Conditions | vapor or sublimation pressure [kPa]
313.2 K | 0.0111 ± 0.0008
323.26 K | 0.026 ± 0.0017
333.23 K | 0.0574 ± 0.0036
343.16 K | 0.12 ± 0.007
351.33 K | 0.221 ± 0.014
361.61 K | 0.43 ± 0.026
362.97 K | 0.462 ± 0.028
371.65 K | 0.785 ± 0.017
381.7 K | 1.395 ± 0.03
391.7 K | 2.376 ± 0.049
391.73 K | 2.374 ± 0.049
401.64 K | 3.883 ± 0.079
411.71 K | 6.212 ± 0.13
421.69 K | 9.628 ± 0.2
431.74 K | 14.62 ± 0.096
441.73 K | 21.63 ± 0.14
451.78 K | 31.44 ± 0.2
461.85 K | 44.81 ± 0.29
